Assay [1] deals with HEK293. Description: inhibition of NOD1-driven NF-kB reporter – cell-based, luminescence, uHTS, primary screen (AID 1578). It is filed as functional. As to conditions: Homo sapiens.
Assay [2] in a line: reduction of Shn3 3'UTR-driven luciferase in osteoblasts – cell-based, Clone20 osteoblasts, firefly luciferase, cherry-picked, dose response (AID 624132).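 Note: firefly luciferase luminescence from reporter carrying the Shn3 3'UTR in osteoblasts.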 It is filed as functional.
Assay [3] in a line: alpha-synuclein stem-loop luciferase translation blockers – H4 neuroglioma cells, luminescence, confirmation (AID 1988). It is filed as functional, cell-based.
The target in assay [4] is Proto-oncogene tyrosine-protein kinase receptor Ret (Homo sapiens, UniProt P07949). It is filed as functional.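 Note: measured within a kinome-wide profiling panel, RET as the panel member.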
The target in assay [5] is Mitogen-activated protein kinase 1 (Homo sapiens, UniProt P28482). It is filed as functional.
Assay [6] addresses Mitogen-activated protein kinase 8 (Homo sapiens, UniProt P45983). It is filed as functional.
In assay [7] the target is Macrophage colony-stimulating factor 1 receptor (Homo sapiens, UniProt P07333). It is filed as functional.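 Note: value comes from the Navigating the Kinome screening panel, CSF1R member.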
Assay [8] concerns the target Tyrosine-protein kinase Lck (Homo sapiens, UniProt P06239). It is filed as functional.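 Note: lck was assayed as one member of a kinase panel.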
Assay [9] deals with Rho-associated protein kinase 1 (Homo sapiens, UniProt Q13464). It is filed as functional.
The target in assay [10] is Homeodomain-interacting protein kinase 2 (Homo sapiens, UniProt Q9H2X6). It counts as functional.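 Note: measured within a kinome-wide kinase profiling panel, HIPK2 being one panel member.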
For assay [11], the target named is Tyrosine-protein kinase Srms (Homo sapiens, UniProt Q9H3Y6). It counts as functional.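 Note: SRMS measured as one member of a kinome-wide kinase profiling panel.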
Assay [12] concerns the target MAP kinase-activated protein kinase 2 (Homo sapiens, UniProt P49137). It counts as functional.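 Note: measured as one member of a kinome-wide kinase panel.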
For assay [13], the target named is Serine/threonine-protein kinase PLK1 (Homo sapiens, UniProt P53350). It counts as functional.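 Note: PLK1 measured as one member of a kinome-wide profiling panel.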
Assay [14] has as its target Testis-specific serine/threonine-protein kinase 1 (Homo sapiens, UniProt Q9BXA7). It is filed as functional.
Assay [15] has as its target RAC-gamma serine/threonine-protein kinase (Homo sapiens, UniProt Q9Y243). It is filed as functional.
The target in assay [16] is Macrophage-stimulating protein receptor (Homo sapiens, UniProt Q04912). In words: Navigating the Kinome. Panel member name: MST1R. It is filed as functional.
Assay [17] deals with Serine/threonine-protein kinase PAK 1 (Homo sapiens, UniProt Q13153). It counts as functional.
In assay [18] the target is Casein kinase II subunit alpha (Homo sapiens, UniProt P68400). It counts as functional.
The target of assay [19] is Vascular endothelial growth factor receptor 1 (Homo sapiens, UniProt P17948). It is filed as functional.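 Note: measured within a kinome-wide profiling panel, FLT1 as the panel member.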
In assay [20] the target is Tyrosine-protein kinase Lyn (Homo sapiens, UniProt P07948). It is filed as functional.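 Note: lyn as one member of a kinase panel.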
Assay [21] deals with Serine/threonine-protein kinase Nek4 (Homo sapiens, UniProt P51957). It counts as functional.
Assay [22] deals with Vascular endothelial growth factor receptor 2 (Homo sapiens, UniProt P35968). It is filed as functional.
In assay [23] the target is Tyrosine-protein kinase SYK (Homo sapiens, UniProt P43405). It is filed as functional.
A short description of assay [24]: viability loss of HPDE-C7K cells – cell-based, fluorescence, HTS, primary screen (AID 431). It is filed as functional. As to conditions: Homo sapiens.
Assay [25] has as its target T1, Aminopeptidase N (Plasmodium falciparum FcB1/Columbia, UniProt O96935).
T1 sequence (O96935 whole entry): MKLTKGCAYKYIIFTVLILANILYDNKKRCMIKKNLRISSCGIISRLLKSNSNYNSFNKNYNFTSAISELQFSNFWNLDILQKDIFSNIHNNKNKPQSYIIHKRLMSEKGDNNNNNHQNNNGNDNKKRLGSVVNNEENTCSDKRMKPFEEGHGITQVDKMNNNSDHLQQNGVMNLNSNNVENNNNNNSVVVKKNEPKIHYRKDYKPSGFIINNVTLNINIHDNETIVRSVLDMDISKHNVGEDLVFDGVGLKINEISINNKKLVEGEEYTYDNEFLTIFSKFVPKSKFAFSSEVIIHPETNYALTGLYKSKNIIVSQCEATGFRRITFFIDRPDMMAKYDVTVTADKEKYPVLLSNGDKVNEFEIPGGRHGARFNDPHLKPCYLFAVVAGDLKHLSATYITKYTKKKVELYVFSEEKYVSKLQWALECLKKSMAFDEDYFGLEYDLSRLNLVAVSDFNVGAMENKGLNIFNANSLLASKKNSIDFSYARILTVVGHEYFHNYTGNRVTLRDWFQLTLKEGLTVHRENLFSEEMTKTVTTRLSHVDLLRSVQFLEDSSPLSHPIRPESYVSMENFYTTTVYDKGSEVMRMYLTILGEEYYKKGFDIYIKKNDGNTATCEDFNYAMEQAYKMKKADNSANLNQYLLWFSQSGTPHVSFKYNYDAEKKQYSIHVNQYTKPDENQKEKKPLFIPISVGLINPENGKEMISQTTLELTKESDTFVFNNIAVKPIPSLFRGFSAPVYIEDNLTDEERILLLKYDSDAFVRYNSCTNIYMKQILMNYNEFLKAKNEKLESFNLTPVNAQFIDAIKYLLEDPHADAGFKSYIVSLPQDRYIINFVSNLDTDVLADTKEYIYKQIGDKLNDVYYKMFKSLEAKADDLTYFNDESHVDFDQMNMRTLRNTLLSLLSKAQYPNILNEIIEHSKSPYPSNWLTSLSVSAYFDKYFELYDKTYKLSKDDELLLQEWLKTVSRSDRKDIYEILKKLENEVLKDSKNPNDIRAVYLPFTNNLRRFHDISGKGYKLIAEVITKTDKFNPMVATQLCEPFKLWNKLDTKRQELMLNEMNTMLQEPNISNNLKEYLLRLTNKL
Description: malaria alanyl aminopeptidase activity blockers – biochemical, fluorogenic H-Leu-NHMec substrate, 1536-well (AID 1445). More on the design: species or system Plasmodium falciparum 3D7, 3D7.

The subject of assay [26] is Streptococcus sp. 'group A'. In words: Streptococcus pyogenes SK(-)GAS viability under kanamycin – luminescence, BacTiterGlo, confirmation, counter-screen for streptokinase expression inhibitor project, dose response (AID 1900). It counts as functional, organism-based. (The purpose of a counterscreen is to sort out artefacts and off-target activity.)

Data on three compounds can be found in ChEMBL document CHEMBL1201862, “PubChem BioAssay data set” (2004).

Calls of active or inactive are those of the source. Bounds are passed on as bounds.

Mitogen-activated protein kinase 1, sequence (P28482 whole entry): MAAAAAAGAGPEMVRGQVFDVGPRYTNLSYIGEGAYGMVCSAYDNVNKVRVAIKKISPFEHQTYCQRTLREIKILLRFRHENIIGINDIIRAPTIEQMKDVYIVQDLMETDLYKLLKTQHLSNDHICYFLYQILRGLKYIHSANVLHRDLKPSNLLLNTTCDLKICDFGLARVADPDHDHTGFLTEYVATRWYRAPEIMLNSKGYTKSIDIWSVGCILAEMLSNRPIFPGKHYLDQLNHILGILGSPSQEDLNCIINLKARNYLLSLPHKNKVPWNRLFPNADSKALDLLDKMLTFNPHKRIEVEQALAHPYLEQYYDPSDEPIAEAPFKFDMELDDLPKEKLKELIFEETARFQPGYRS
Homeodomain-interacting protein kinase 2, sequence (Q9H2X6 whole entry): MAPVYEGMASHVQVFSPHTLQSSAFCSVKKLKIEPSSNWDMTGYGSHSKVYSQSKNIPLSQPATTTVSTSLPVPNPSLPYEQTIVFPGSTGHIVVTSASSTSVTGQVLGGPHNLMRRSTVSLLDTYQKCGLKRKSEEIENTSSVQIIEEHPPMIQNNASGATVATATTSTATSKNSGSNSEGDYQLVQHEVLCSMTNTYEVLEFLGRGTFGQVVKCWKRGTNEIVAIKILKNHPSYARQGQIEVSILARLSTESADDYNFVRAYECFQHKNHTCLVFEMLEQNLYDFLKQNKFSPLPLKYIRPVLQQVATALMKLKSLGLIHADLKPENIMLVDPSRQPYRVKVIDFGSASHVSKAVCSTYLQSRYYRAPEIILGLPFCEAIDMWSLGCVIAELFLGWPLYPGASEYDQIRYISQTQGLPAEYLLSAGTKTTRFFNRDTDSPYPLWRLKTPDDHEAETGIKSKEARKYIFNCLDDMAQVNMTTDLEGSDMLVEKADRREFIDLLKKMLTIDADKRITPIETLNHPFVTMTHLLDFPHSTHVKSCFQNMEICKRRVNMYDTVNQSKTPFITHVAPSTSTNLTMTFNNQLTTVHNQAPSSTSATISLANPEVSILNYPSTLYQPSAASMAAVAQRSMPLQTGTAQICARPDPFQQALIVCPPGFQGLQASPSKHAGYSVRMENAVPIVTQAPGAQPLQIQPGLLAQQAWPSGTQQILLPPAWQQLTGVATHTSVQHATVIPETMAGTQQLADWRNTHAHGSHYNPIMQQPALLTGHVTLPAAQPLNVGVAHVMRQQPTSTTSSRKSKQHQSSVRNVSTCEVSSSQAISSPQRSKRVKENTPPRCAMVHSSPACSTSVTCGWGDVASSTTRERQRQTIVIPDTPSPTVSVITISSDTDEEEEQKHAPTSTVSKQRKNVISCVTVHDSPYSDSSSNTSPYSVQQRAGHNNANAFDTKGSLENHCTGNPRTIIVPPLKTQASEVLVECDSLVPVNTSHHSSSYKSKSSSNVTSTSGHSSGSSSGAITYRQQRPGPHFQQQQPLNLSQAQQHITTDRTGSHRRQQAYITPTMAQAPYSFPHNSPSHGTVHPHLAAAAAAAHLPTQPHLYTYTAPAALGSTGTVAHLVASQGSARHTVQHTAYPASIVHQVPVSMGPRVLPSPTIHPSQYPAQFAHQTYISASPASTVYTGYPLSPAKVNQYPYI
Macrophage-stimulating protein receptor, sequence (Q04912 25-304 limits assumed): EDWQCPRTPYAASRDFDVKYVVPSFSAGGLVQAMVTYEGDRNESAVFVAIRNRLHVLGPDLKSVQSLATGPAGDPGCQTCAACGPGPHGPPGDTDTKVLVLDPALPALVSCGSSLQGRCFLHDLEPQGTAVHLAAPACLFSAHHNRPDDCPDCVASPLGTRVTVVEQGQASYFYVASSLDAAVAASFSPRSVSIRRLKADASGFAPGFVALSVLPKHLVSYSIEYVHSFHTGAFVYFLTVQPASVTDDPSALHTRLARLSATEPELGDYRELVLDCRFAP
Macrophage-stimulating protein receptor, sequence (Q04912 310-1400 limits assumed): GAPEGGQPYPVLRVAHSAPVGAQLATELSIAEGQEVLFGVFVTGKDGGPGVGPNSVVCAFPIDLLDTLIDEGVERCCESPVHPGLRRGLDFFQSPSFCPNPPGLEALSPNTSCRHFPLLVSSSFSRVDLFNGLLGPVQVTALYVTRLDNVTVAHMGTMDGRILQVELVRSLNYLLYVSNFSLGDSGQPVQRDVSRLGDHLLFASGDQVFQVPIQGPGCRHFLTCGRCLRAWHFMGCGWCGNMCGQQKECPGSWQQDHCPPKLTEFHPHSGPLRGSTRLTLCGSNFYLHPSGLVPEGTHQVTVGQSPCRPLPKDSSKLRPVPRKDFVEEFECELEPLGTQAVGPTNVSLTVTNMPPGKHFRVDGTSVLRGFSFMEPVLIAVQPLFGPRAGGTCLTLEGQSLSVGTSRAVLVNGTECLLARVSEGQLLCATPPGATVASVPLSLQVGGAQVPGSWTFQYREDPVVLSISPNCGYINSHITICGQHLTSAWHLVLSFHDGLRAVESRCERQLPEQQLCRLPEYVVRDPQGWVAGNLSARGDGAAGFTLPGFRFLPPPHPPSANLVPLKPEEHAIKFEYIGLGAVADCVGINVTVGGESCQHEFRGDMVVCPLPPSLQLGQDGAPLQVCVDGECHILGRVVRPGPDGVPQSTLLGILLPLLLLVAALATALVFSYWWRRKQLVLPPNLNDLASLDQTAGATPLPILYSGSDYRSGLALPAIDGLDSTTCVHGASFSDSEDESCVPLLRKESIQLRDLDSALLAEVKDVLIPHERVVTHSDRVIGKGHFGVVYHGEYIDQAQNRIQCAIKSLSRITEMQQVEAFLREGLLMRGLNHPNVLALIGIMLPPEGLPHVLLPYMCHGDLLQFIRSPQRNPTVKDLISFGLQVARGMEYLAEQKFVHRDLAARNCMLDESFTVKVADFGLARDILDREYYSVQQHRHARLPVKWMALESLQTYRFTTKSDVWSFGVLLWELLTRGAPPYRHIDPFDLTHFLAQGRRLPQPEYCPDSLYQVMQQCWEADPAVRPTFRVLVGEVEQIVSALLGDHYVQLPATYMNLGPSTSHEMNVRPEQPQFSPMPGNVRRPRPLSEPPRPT
Tyrosine-protein kinase Srms, sequence (Q9H3Y6 whole entry): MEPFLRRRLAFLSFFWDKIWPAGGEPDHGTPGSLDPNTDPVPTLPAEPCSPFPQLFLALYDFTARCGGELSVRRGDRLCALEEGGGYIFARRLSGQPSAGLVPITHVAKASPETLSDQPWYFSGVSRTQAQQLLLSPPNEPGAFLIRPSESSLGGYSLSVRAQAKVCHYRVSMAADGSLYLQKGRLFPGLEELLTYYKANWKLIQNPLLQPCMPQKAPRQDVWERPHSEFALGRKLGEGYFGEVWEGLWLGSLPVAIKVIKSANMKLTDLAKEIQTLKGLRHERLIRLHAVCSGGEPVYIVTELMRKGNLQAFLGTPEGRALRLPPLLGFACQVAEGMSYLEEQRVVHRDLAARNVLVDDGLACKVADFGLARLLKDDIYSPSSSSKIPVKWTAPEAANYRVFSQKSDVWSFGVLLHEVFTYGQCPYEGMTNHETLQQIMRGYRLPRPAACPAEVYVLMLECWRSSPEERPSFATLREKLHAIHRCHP
Casein kinase II subunit alpha, sequence (P68400 whole entry): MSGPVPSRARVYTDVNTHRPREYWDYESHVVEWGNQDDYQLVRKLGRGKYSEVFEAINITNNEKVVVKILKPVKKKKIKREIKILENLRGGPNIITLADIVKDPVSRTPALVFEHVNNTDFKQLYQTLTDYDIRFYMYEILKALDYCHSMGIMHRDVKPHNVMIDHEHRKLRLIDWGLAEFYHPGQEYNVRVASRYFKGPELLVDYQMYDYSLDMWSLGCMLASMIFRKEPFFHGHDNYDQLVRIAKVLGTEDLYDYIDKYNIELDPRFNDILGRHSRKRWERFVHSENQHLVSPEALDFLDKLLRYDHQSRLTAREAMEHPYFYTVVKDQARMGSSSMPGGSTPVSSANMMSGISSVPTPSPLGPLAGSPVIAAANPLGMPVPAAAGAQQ
Serine/threonine-protein kinase PAK 1, sequence (Q13153 whole entry): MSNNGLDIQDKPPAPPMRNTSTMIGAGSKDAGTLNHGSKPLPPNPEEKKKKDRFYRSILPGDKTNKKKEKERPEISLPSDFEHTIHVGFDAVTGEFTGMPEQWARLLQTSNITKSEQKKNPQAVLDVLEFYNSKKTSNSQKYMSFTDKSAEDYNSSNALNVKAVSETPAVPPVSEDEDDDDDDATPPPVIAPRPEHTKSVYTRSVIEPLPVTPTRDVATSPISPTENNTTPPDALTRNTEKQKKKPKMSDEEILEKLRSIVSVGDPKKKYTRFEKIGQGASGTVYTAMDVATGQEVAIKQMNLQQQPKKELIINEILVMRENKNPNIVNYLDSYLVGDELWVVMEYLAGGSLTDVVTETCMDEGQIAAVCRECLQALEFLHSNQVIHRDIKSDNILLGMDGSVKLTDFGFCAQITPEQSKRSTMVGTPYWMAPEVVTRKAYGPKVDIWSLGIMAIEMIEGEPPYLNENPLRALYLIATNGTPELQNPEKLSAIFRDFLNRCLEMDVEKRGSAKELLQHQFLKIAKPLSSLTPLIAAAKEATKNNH
Serine/threonine-protein kinase PLK1, sequence (P53350 whole entry): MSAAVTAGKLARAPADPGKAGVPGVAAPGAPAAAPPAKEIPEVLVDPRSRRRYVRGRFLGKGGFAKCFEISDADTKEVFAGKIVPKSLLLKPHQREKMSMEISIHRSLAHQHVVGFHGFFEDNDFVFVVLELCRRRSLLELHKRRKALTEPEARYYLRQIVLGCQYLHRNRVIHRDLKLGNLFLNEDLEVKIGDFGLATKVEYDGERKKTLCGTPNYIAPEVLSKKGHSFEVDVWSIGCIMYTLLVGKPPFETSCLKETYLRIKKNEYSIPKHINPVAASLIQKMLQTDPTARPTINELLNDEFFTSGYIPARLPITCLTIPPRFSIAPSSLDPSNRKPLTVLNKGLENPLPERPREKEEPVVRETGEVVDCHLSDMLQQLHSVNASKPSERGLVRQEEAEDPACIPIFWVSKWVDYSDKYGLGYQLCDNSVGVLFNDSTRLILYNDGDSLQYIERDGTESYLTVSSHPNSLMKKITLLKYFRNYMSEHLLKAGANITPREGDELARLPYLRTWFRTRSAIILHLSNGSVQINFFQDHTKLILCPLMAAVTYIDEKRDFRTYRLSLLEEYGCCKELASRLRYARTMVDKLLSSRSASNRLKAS

What is called EC50 is the concentration at which the effect is half-maximal. The AC50 is the concentration giving half of the maximal activity seen. `O=C1C=C(N2CCOCC2)c2ccccc2C1=O`: the EC50 is 8.79 µM (active) in [1] and 8.41 µM (active) in assay [3]. The concentration at half-maximal activity (AC50) in assay [2] was 7.16 µM (active).

Usually Ki stands for the dissociation constant of the complex between target and ligand, obtained from inhibition or displacement. As to `N#Cc1ccc2[nH]c(O)c(-c3ccc(CN4CCOCC4)cn3)c2c1` [AZD-1080], the Ki was > 2.51 µM (inactive) in assay [4]; > 7.94 µM (inactive) in assay [5]; > 5.01 µM (inactive) in assay [6]; > 2.51 µM (inactive) in assay [7]; > 5.01 µM (inactive) in [8]; > 7.94 µM (inactive) in assay [9]. In addition, the Ki was > 3.16 µM (inactive) in assay [10]; > 1.58 µM (inactive) in assay [11]; > 7.94 µM (inactive) in assay [12]; > 7.94 µM (inactive) in assay [13]; > 1.58 µM (inactive) in assay [14]; > 10 µM (inactive) in [15]. The Ki is > 3.98 µM (inactive) in assay [16]; > 10 µM (inactive) in [17]; > 6.31 µM (inactive) in [18]; > 2.51 µM (inactive) in [19]; > 1.58 µM (inactive) in assay [20]; > 6.31 µM (inactive) in [21]. Further, the Ki was > 2.51 µM (inactive) in [22] and > 1.58 µM (inactive) in assay [23].

A word on the IC50: it is the concentration needed to halve the response being measured. For the compound `CCc1oc2ccccc2c1C(=O)c1cc(Br)c(O)c(Br)c1` [BENZBROMARONE], the EC50 is 5.29 µM (active) in [24] and 7.44 µM (active) in assay [26]. For the same compound, the IC50 in assay [25] was 62.8 µM (active).
